Laboratory results published in patent publication US20260216352A1, “DIRECTED BIOSYNTHESIS OF MODIFIED ANTHRAQUINONE-FUSED ENEDIYNES AS POTENTIAL CANCER THERAPEUTICS” (The Johns Hopkins University, priority 2023, published 2026).
One block for each compound: values may come before it.

Legend:
[1] = assay type: physicochemical
Source text: With the indication that substituents larger than two carbons probably are not tolerated by the mutasynthetic approach, we focused on repurposing the methyl ketone to generate other smaller substituents. […] Removal of the acetyl protecting group in refluxing HCl-ethanol solution provided the 9-amino-5-iodoanthracene-g-thiolactone 45 (Scheme 4). Incorporation of 45 in a Δorf15 fermentation was again successful, as hoped, producing deshydroxy amino-DYN analogue 50 as the major product, accompanied by the low production of the desdihydroxy DYN analogue 51 (FIG. 31).

[2] = test system: wild type M. chersina; assay: Small-scale supplementation of wild type M. chersina fermentation and analysis of dynemicin A production; set-up: species or system Micromonospora chersina; settings: for Restoration of Dyn production: wild type M. chersina, no added NaI / sodium halide in the fermentation medium
Description: Samples cut from medium 53 agar were used to inoculate 50 mL liquid medium 53 cultures. The cultures were shaken at 28° C. for seven days. Then, samples from these vegetative cultures were used to inoculate H881 media (10 g/L soluble starch, 5 g/L Pharmamedia, 1 g/L CaCO3, 0.05 g/L CuSO4·5 H2O and 0.0005 g/L NaI) for fermentation. These cultures were then shaken at 28° C. for 7 days.
Samples (5 mL) of fermentations were extracted with 5 mL of ethyl acetate by vortexing the emulsion for one minute and separating the layers by centrifugation at 4000×g. The ethyl acetate layer (4 mL) was isolated and dried by SpeedVac at room temperature. The residue was then resuspended in 200 μL of dimethyl sulfoxide and filtered through 0.2 μm polytetrafluoroethylene filters for analysis on an Agilent 1200 HPLC equipped with a Phenomenex Prodigy ODS3 100 Å, 5 μm, 250×4.6 mm column. Injections were 30 μL and separated with a gradient method increasing from 5% to 95% acetonitrile supplemented with 0.1% formic acid over 40 min, followed by a 10 min hold at 95% acetonitrile before re-equilibration. The method was run at 1 mL/min and monitored at 280, 375, 450 and 570 nm.
Wild type M. chersina mycelial stock […] was plated on med 53, Lam et al., 1995, with 2% agar and grown at 28° C. After 7 d, mycelia from the plate were inoculated into 50 mL med 53 liquid fermentation medium in a 125 mL Erlenmeyer flask and shaken at 250 rpm at 28° C. for another 7 d. This starter culture (2 mL) was inoculated into 50-mL H881 liquid medium, Lam et al., 1995, with or without added NaI (0.5 mg/L) in 250-mL Erlenmeyer flask and shaken at 250 rpm and 28° C. After 24 h, […] of 2-mM stock solutions of 5, 13 and 25 in DMSO (sterile filtered using 0.2-μm PTFE filters) were added to the respective flasks with or without NaI supplementation to provide a final concentration of the added compounds of […]. After shaking at 250 rpm and 28° C. for another 2 d, Diaion® HP-20 (0.50 g, sterilized by autoclave) was added to each flask and shaking was continued for another 4 d. After a total 7 d of fermentation, 5 mL from each sample was extracted with 5 mL of EtOAc by vortexing for 1 min. Extracts were centrifuged at 4000×g and 4° C. for 5 min, and 4 mL of each EtOAc layer was dried by SpeedVac without heating. Samples were dissolved in 200 μL DMSO, filtered through 0.2 μm PTFE filters and analyzed on an Agilent 1200 HPLC using a Prodigy ODS3 100 Å, […], 250×4.6 mm column (Phenomenex). A gradient method of 5-95% ACN+0.1% (v/v) formic acid over 40 min, followed by 10 min hold at 95% ACN before column re-equilibration was used at a 1 mL/min flow rate to achieve separation of metabolites. Production of dynemicin and other related metabolites was monitored at 280 nm, 450 nm, and 570 nm. […]

[3] = test system: cancer cells; settings: read-out: In vitro IC50; cited from earlier work
[4] = test system: transplantable cervical carcinoma HeLa, leukemia P388, L-1210 and melanoma B16; settings: cited from earlier work

Oxidative stability [1]: oxidatively unstable
Compound: Nc1ccc2cc3c(I)ccc4c3c(c2c1)SC4=O [Compound 45, 9-Amino-5-iodo-2H-anthra[9,1-bc]thiophen-2-one]

Compound: Nc1ccc2c3c(c4ccccc4cc13)SC2=O [aminoanthracene 25, 5-Amino-2H-anthra[9,1-bc]thiophen-2-one]
Restoration of Dyn production [2]: failed to rescue Dyn production

Compound: O=C1Sc2c3ccccc3cc3c(Br)ccc1c23 [bromoanthracene 13, 5-Bromo-2H-anthra[9,1-bc]thiophen-2-one]
Effect on Dyn production ([2]; wild type M. chersina fermentation medium with added sodium iodide, increasing concentrations of 13): decrease Dyn production | Restoration of Dyn production [2]: not restored

Compound: O=C1Sc2c3ccccc3cc3c(I)ccc1c23 [iodoanthracene 5, 5-Iodo-2H-anthra[9,1-bc]thiophen-2-one]
Restoration of Dyn production [2]: fully restored Dyn production

Compound: Calicheamicins
IC50 [3]: 6 to 9 nM | In vivo ID50 [4]: 0.0005 to 0.0015 mg/kg

Compound: Neocarzinostatin
IC50 [3]: 225 to 900 nM | In vivo ID50 [4]: 0.38 mg/kg
